Laboratory results as given in PMC11513920, “Building Metabolically Stable and Potent Anti-HIV Thioether-Lipid Analogues of Tenofovir Exalidex: A thorough Pharmacological Analysis” (Journal of Medicinal Chemistry, 2024).
“And” between values parts separate entries of the source, which are not always exact repeats. Equal values may be shown once.

What was measured:
Human plasma stability = assay type: in vitro ADME; conditions: for remaining at 4 h, 3 μM / half-life at 3 μM: both sexes, human, plasma; for half-life at 3 μM: 37 °C, 240 min course, read-out: human plasma t1/2
Protocol: Human plasma (lithium heparin (LiHep) mixed, gender pooled, 0.2 μm filtered) and mouse plasma (BALB/C, LiHep mixed, male pooled, 0.2 μm filtered) were purchased from BioIVT. Procaine (Sigma-Aldrich) served as a positive control for both human and mouse plasma experiments. […] Next, the human or mouse plasma (994 μL) was aliquoted into 1.5 mL Eppendorf tubes with duplicates (reactions A and B) being prepared for each compound. The plasma was then incubated at 37 °C for 10 min. […] This procedure provided duplicate experiments with a final volume of 1000 μL (<0.2% organic solvent content) and a final test compound concentration of 3 μM. Aliquots (100 μL) were removed from each reaction mixture at 0, 30, 60, 120, and 240 min time intervals and quenched with 150 μL of cold ISTD solution (2 μM 7-ethoxy-d5-coumarin in MeOH). […] The positive control reaction was conducted at a final volume of 1000 μL for a single run of each time point. Finally, the negative control experiment was conducted with test compounds in Dulbecco’s phosphate buffered saline without calcium and magnesium (DPBS, Fisher Scientific, 143 μL) and analyzed at the 240 min time point.
Plasma Stability Assay Setup Example
Test Compound: 994 µL Human or Mouse Plasma + 6.0 µL TC (500 µM, Vial A).
994 µL Human or Mouse Plasma + 6.0 µL TC (500 µM, Vial B).
Positive Control: 994 µL Human or Mouse Plasma + 6.0 µL Procaine (500 µM).
Negative Control: 142 µL DPBS (1X, pH 7.1-7.3) + 0.9 µL TC (500 µM).
Quenching Mixture: 150 µL MeOH with ISTD (2 µM d5-7-ethoxycoumarin).
Final Volume After Quenching: 250 µL (100 µL from reaction mixture and 150 µL quencher
solution; ISTD final concentration of 1.2 µM).
Human Plasma Stability of Compound 2a at 37 °C
Figure S29. In vitro human plasma stability of 2a (5 points over 240 min) with procaine serving

[1] = Mouse plasma pharmacokinetics after intravenous dose; assay type: in vivo, male C57BL/6 mice; conditions: i.v. 3 mg/kg; for k (terminal elimination rate constant): 3 mg/kg; for concentration at 0.1 h / concentration at 0.25 h / concentration at 0.5 h / concentration at 1 h / concentration at 2 h / concentration at 4 h / concentration at 6 h / concentration at 8 h: read-out: mean prodrug concentration in plasma; for Cmax at 8 h / Tmax at 8 h / AUC(0-t) at 8 h: prodrug; for AUC(0-t) at 8 h: read-out: AUC0–8h
Protocol: (§1) To compare the in vivo PK profiles to TXL and our previously reported drug lead 1 (Tables S19 and S26),[39] one group of male C57BL/6 mice were administered a single oral dose (p.o., 10 mg/kg) of 2a, 16g, or 16h (refer to Experimental Methods). Additionally, a separate group of mice were given a single intravenous dose (i.v., 3 mg/kg) of each prodrug to obtain plasma clearance (Cl), volume of distribution (Vd), and oral bioavailability data. Blood was sampled at 8 time points over 8 h (i.v.) or 24 h (p.o.) postdose, and plasma was isolated via centrifugation. Tissues (liver, kidney, and brain) were also harvested and homogenized at 3 time points over 24 h after oral dose. The concentrations of prodrug and TFV metabolite in each of these samples was then quantified using LC–MS/MS methodology.
(§2) Healthy male C57BL/6 mice (8–12 weeks old) weighing 20–30 g were procured from Global, India. Three mice were housed in each cage. Temperature and humidity were maintained at 22 ± 3 °C and 30–70%, respectively, and illumination was controlled to provide for 12 h light and 12 h dark cycles. Temperature and humidity were recorded by an autocontrolled data logger system. All animals were provided a laboratory rodent diet (Envigo Research private Ltd., Hyderabad). Reverse osmosis H2O treated with ultraviolet light was provided ad libitum.
(§3) Male mice were divided into two groups (n = 18 total, n = 9 per treatment group, n = 3 per time point, sparse sampling). One group was intravenously administered a solution of 2a, 16g, and 16h in 10% PEG-300, 10% Solutol HS-15, and 80% saline at 3 mg/kg with a dosing volume of 5 mL/kg. The second group was administered a solution of 2a, 16g, and 16h in 10% EtOH and 90% olive oil at 10 mg/kg via oral gavage with a dosing volume of 10 mL/kg.
(§4) Blood samples (approximately 60 μL) were collected from retro-orbital plexus under light isoflurane anesthesia such that the samples were obtained predose, as well as at eight time points post dose: 0.1, 0.25, 0.5, 1, 2, 4, 6, and 8 (i.v.) and 0.25, 0.5, 1, 2, 4, 8, 12, and 24 h (p.o.). Immediately after blood collection, plasma samples were harvested by centrifugation at 4000 rpm and 4 °C for 10 min and stored at −70 °C until LC–MS/MS analysis. Following blood collection from p.o. group, liver, kidney, and brain samples were collected (n = 3 per treatment group per time point) at 1, 4, and 24 h post dose. After isolation, tissue samples were rinsed three times with ice-cold saline and dried with blotting paper. Next, the tissue samples were homogenized using ice-cold PBS (pH = 7.4), and the resulting homogenates were stored below −70 °C until LC-MS/MS analysis. The total homogenate volume was 3 times the brain weight and 5 times the liver and kidney weight.
(§5) Areas under the concentration–time curves (AUC0–8h and AUC0–24h) were calculated via the linear trapezoidal rule[65] using GraphPad Prism v9. Furthermore, terminal elimination rate constants k were determined using linear regression (slope = −k) of the terminal portion of semilog-transformed concentration–time curves (Figures S44, S45, S47, S48, S50, and S51).

[2] = Mouse plasma pharmacokinetics after oral dose; assay type: in vivo, male C57BL/6 mice; conditions: for bioavailability / bioavailability at 24 h / concentration at 0.25 h / concentration at 0.5 h / concentration at 1 h / concentration at 2 h / concentration at 4 h / concentration at 8 h / concentration at 12 h / half-life at 24 h / Cmax at 24 h / Tmax / AUC(0-t) at 24 h: male, C57BL/6, mouse; for bioavailability / bioavailability at 24 h / concentration at 0.25 h / concentration at 0.5 h / concentration at 1 h / concentration at 2 h / concentration at 4 h / concentration at 8 h / concentration at 12 h / half-life at 24 h / Cmax at 24 h / Tmax / AUC(0-t) at 24 h / Vd / k (terminal elimination rate constant): plasma; for bioavailability: oral; for bioavailability / bioavailability at 24 h: p.o. 10 mg/kg vs i.v. 3 mg/kg, read-out: %F (oral bioavailability); for bioavailability at 24 h / concentration at 0.25 h / concentration at 0.5 h / concentration at 1 h / concentration at 2 h / concentration at 4 h / concentration at 8 h / concentration at 12 h / half-life at 24 h / Cmax at 24 h / Tmax / AUC(0-t) at 24 h: po; for concentration at 0.25 h / concentration at 0.5 h / concentration at 1 h / concentration at 2 h / concentration at 4 h / concentration at 8 h / concentration at 12 h / half-life at 24 h / Cmax at 24 h / Tmax / AUC(0-t) at 24 h / mean prodrug concentration in plasma / Vd / k (terminal elimination rate constant): p.o. 10 mg/kg; for concentration at 0.25 h / concentration at 0.5 h / concentration at 1 h / concentration at 2 h / concentration at 4 h / concentration at 8 h / concentration at 12 h: read-out: mean prodrug concentration in plasma; for Cmax at 24 h / Tmax / AUC(0-t) at 24 h: prodrug; for AUC(0-t) at 24 h: read-out: AUC0–24h; for mean TFV concentration in plasma: p.o. 10 mg/kg of prodrug, LLOQ 4.84 ng/mL; for concentration at 0.25 h / mean TFV concentration in plasma: 0.25 h; for mean prodrug concentration in plasma: 24 h, BLQ = below LLOQ (0.58 ng/mL 2a, 0.62 ng/mL 16g); for k (terminal elimination rate constant): 10 mg/kg
Protocol: as §1, §2, §3, §4, §5

HEK293T cells = experiment: Cellular cytotoxicity (cell viability, CellTiter 96 or resazurin); conditions: HEK293T cells, 48 h, compounds formulated with HSA (5:1)
Protocol: (§6) Second, HIV IC50 and cellular CC50 were determined with a pseudoviral, whole (HEK293T) cell, nonreplicative HIV assay, using the HIV-1 subtype C strain MJ4 (refer to Experimental Methods). To account for the unique amphiphilic properties of TXL and the novel HTP-based prodrugs, all compounds were formulated in a human serum albumin (HSA) solution (5:1 drug:protein).
(§7) Assessment of cytotoxicity and antiviral activity of all final compounds in vitro was conducted according to previously reported procedures.[39] In summary, human embryonic kidney (HEK293T) cells maintained in high glucose (25 mM), Dulbecco’s modified Eagle’s medium (DMEM) supplemented with fetal bovine serum (10%), sodium pyruvate (1 mM), L-glutamine (2 mM), HEPES (25 mM), and gentamicin (50 μg/mL) were used for determinations. The cells were maintained in an incubator at 37 °C under 5% CO2 in a humidified atmosphere. For both cytotoxicity and antiviral screening, all compounds were evaluated in duplicate in at least two independent experiments. All final compounds were formulated with human serum albumin (HSA, 5:1 compound to HSA molar ratio) and subsequently diluted with complete DMEM to 200 μM. Fifty microliters of test compound serial dilutions (3-fold) were prepared in 96-well culture plates, after which 50 μL of HEK293T cells (2 × 10^4 cells/well) was added. […] Cytotoxicity was then assessed by quantifying cell viability using the CellTiter 96 Aqueous One Solution Cell Proliferation Assay (Promega, Madison, WI) or resazurin sodium salt (cat# R7017, Merck, Darmstadt, Germany).[61] […] Antiviral activity was then assessed using a single-cycle, nonreplicating, envelope deleted HIV pseudoviral in vitro assay.[62],[63] The assay relies on the introduction of the firefly luciferase gene into HEK293T cells through infection with HIV-like viral particles, containing Reverse Transcriptase (RT) and Integrase (IN) from the HIV-1 subtype C strain MJ4.[64] The expression of the luciferase in the cells is directly proportional to the level of infection by the HIV-like viral particles and can be used to assess the inhibition of HIV-1 RT and IN. To evaluate anti-HIV activity, 3-fold serial dilutions of all final compounds were prepared in 50 μL over the noncytotoxic concentration range (as determined from the cytotoxicity screens described above) in 96-well culture plates. HEK293T cells (2 × 10^4 cells/well) and HIV-like viral particles, standardized to produce a luminescence signal of 1 × 10^6 relative light units (RLUs) in the growth medium only control, were combined, and 50 μL was added to the wells containing serially diluted test compounds. […] The expression of luciferase was subsequently quantified by adding 100 μL of the Bright-Glo Luciferase Assay substrate (Promega, Madison, WI) to each well of the 96-well plates. After incubation at rt for 3 min, luminescence was quantified on the GloMax Explorer Multimode Microplate Reader (Promega, Madison, WI).

[3] = tested on: HIV-1 subtype C strain MJ4; experiment: Single-cycle non-replicating HIV pseudoviral luciferase assay in HEK293T cells; conditions: Human immunodeficiency virus 1, HEK-293T, read-out: HIV IC50
Protocol: as §6, §7

[4] = relative percent remaining at 240 min

| Structure (SMILES) | remaining at 4 h, 3 μM (Human plasma stability; [4]) [%] | half-life at 3 μM (Human plasma stability) [h] | k (terminal elimination rate constant) [1] | Vd at 8 h ([1]; male, C57BL/6, mouse, iv) [L/kg] | clearance ([1]; male, C57BL/6, mouse, iv) [L/h/kg] | concentration at 0.1 h ([1]; male, C57BL/6, mouse, iv) [µg/mL] | concentration at 0.25 h ([1]; male, C57BL/6, mouse, iv) [µg/mL] | concentration at 0.5 h ([1]; male, C57BL/6, mouse, iv) [µg/mL] | concentration at 1 h ([1]; male, C57BL/6, mouse, iv) [µg/mL] | concentration at 2 h ([1]; male, C57BL/6, mouse, iv) [µg/mL] | concentration at 4 h ([1]; male, C57BL/6, mouse, iv) [µg/mL] | concentration at 6 h ([1]; male, C57BL/6, mouse, iv) [µg/mL] | concentration at 8 h ([1]; male, C57BL/6, mouse, iv) [µg/mL] | Cmax at 8 h ([1]; male, C57BL/6, mouse, iv) [µg/mL] | Tmax at 8 h ([1]; male, C57BL/6, mouse, iv) [min] | AUC(0-t) at 8 h ([1]; male, C57BL/6, mouse, iv) [µg·h/mL] | bioavailability [2] [%] | bioavailability at 24 h [2] [%] | concentration at 0.25 h [2] [µg/mL] | concentration at 0.5 h [2] [µg/mL] | also measured |
| --- | --- | --- | --- | --- | --- | --- | --- | --- | --- | --- | --- | --- | --- | --- | --- | --- | --- | --- | --- | --- | --- |
| CCCCCCCCCCCCCCCCSCCCOP(=O)(O)CO[C@H](C)Cn1cnc2c(N)ncnc21.N [2a] | 95 | > 4 | 0.4666 and 0.467 | 18.9 | 8.82 | 2.06 | 0.32 | 0.134 | 0.0571 | 0.00868 | 0.00375 | 0.00341 | 0.00121 | 2.06 | 6 | 0.34 | 20 | 19.3 | 0.0296 | 0.0518 | human plasma % remaining (Human plasma stability; [4]): > 95%; half-life ([1]; male, C57BL/6, mouse, iv): 1.49 h; concentration at 1 h [2]: 0.0733 µg/mL; concentration at 2 h [2]: 0.048 µg/mL; concentration at 4 h [2]: 0.00834 µg/mL; concentration at 8 h [2]: 0.0071 µg/mL; concentration at 12 h [2]: 0.0076 µg/mL; half-life at 24 h [2]: 3.49 h; Cmax at 24 h [2]: 0.0733 µg/mL; Tmax [2]: 1 h; AUC(0-t) at 24 h [2]: 0.219 µg·h/mL; mean TFV concentration in plasma [2]: BLQ; mean prodrug concentration in plasma [2]: BLQ; Vd [2]: 44.4 L/kg; k (terminal elimination rate constant) [2]: 0.1985 and 0.199; CC50 (HEK293T cells): 49.8 ± 2.9 µM |
| C[C@H](Cn1cnc2c(N)ncnc21)OCP(=O)(O)OCCCSCCCCCCCCCCCCc1ccc(F)cc1.N [16g] | > 95 | > 4 | 0.4057 and 0.406 | 19.9 | 8.05 | 0.863 | 0.315 | 0.227 | 0.0715 | 0.0216 | 0.0121 | 0.0075 | 0.00312 | 0.863 | 6 | 0.373 | 20 | 20.9 | 0.017 | 0.043 | half-life at 8 h ([1]; male, C57BL/6, mouse, iv): 1.71 h; concentration at 1 h [2]: 0.0586 µg/mL; concentration at 2 h [2]: 0.0559 µg/mL; concentration at 4 h [2]: 0.016 µg/mL; concentration at 8 h [2]: 0.0112 µg/mL; concentration at 12 h [2]: 0.0105 µg/mL; half-life at 24 h [2]: 4.19 h; Cmax at 24 h [2]: 0.0586 µg/mL; Tmax [2]: 1 h; AUC(0-t) at 24 h [2]: 0.26 µg·h/mL; mean TFV concentration in plasma [2]: BLQ; mean prodrug concentration in plasma [2]: BLQ; Vd [2]: 48.7 L/kg; k (terminal elimination rate constant) [2]: 0.1654 and 0.165; IC50 [3]: 0.008 to 0.012 µM |
